The values that follow come from US9550796B2, “Pyrrolopyrrolone derivatives and their use as BET inhibitors” (NOVARTIS AG, priority 2013, dated 2017).

Bounds are passed on as bounds.

One experiment addresses BRD4 (Homo sapiens (Human), UniProt O60885). The experiment is described as follows: TR-FRET in-vitro binding assay for BRD4. The note with it: 45 nM His-Brd4(44-477), acetyl-histone H4 (AcK 5, 8, 12, 16) peptide. The gist of the method: (§1)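 Binding is detected by TR-FRET following incubation for 35 minutes at 30° C.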
The test system of a further experiment is THP-1. Put plainly: Cell growth inhibition assay (CellTiter-Glo), THP-1. The conditions noted are these: THP-1 cells, 4 days; for GI50: Homo sapiens, 96 h, half-maximal growth inhibition; for THP-1 TGI: total growth inhibition. In kind it is cell-based, human. Summed up: (§2)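 A separate day 0 plate allows cytotoxic and cytostatic effects to be distinguished: viable-cell ATP after 4-day compound treatment (top 10 μM, 3-fold steps) is expressed relative to it. DMSO-only wells count as 100% and medium-only wells as −100%.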

The subject of a further experiment is MV-4-11. The experiment is described as follows: Cell growth inhibition assay (CellTiter-Glo), MV-4-11. In kind it is cell-based, human. The conditions noted are these: MV-4-11 cells, 4 days; for GI50: Homo sapiens, MV4-11, 96 h, half-maximal growth inhibition; for MV-4-11 TGI: total growth inhibition. The gist of the method:
as §2

The test system of a further experiment is K-562. Put plainly: Cell growth inhibition assay (CellTiter-Glo), K-562. In kind it is cell-based, human. The note with it: K-562 cells, 4 days; for GI50: Homo sapiens, K562, 96 h, half-maximal growth inhibition; for K-562 TGI: total growth inhibition. The gist of the method: as §2
A further experiment concerns the target CREBBP (Homo sapiens (Human), UniProt Q92793). The experiment is described as follows: AlphaScreen in-vitro binding assay for CREBBP. The conditions noted are these: 324 nM His-CREBBP (1081-1197), acetyl-histone H4 (AcK 5, 8, 12) peptide. Summed up: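 IC50 values were derived by non-linear regression of percent inhibition across 8 compound concentrations. Protein was His-tagged CREBBP bromodomain (1081-1197), peptide acetyl-histone H4 (AcK 5, 8, 12), in HEPES pH 7.5 buffer. Read-out was AlphaScreen with Ni-chelate acceptor and streptavidin donor beads, 35 min at 30° C then 60 min at RT.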

In the next experiment the target is BRD3 (Homo sapiens (Human), UniProt Q15059). The experiment is described as follows: TR-FRET in-vitro binding assay for BRD3. The conditions noted are these: 45 nM His-Brd3(20-477), acetyl-histone H4 (AcK 5, 8, 12, 16) peptide. Summed up: as §1
BRD3, sequence (Q15059 20-477): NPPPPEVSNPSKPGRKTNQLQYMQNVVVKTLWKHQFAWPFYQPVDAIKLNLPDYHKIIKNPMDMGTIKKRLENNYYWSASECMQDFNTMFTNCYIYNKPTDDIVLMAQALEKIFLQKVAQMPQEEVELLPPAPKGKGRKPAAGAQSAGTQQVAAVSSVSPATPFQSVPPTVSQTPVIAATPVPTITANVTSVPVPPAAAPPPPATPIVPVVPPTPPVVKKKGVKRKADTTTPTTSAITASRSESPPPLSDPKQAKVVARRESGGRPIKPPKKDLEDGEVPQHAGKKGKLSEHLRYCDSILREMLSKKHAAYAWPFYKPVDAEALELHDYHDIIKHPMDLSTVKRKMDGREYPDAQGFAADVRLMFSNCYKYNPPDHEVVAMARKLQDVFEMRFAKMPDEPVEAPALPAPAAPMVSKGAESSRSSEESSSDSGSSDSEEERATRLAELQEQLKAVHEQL

CREBBP, sequence (Q92793 1081-1197): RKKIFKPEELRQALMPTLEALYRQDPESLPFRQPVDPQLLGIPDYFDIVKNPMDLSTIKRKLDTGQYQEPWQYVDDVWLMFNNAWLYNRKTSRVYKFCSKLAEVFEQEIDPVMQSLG

`Cc1cc(N2C(=O)c3c(NC(=O)CN(C)C)cn(C)c3C2c2ccc(Cl)cc2)cn2c(C)nnc12` (stereo not drawn) [Example 116, N-(6-(4-chlorophenyl)-5-(3,8-dimethyl-[1,2,4]triazolo[4,3-a]pyridin-6-yl)-1-methyl-4-oxo-1,4,5,6-tetrahydropyrrolo[3,4-b]pyrrol-3-yl)-2-(dimethylamino)acetamide]: the IC50 on BRD4 worked out at 26 nM; on CREBBP, 4.2 µM; on BRD3 it was 34 nM. In addition, the GI50 in the experiment with THP-1 came to 59.5 nM; with MV-4-11, 37.8 nM; in the experiment on K-562, 288 nM. For the same compound, the “THP-1 TGI” value in the experiment with THP-1 was determined as 0.123 µM. The “MV-4-11 TGI” value in the experiment with MV-4-11 was 0.08745 µM. In the experiment on K-562, the “K-562 TGI” value was greater than 10 µM.
Consider `CC(=O)N1CC(c2cn(C)c3c2C(=O)N(c2cc(C)c4nnc(C)n4c2)C3c2ccc(Cl)cc2)C1` (stereo not drawn) [Example 117, 3-(1-acetylazetidin-3-yl)-6-(4-chlorophenyl)-5-(3,8-dimethyl-[1,2,4]triazolo[4,3-a]pyridin-6-yl)-1-methyl-5,6-dihydropyrrolo[3,4-b]pyrrol-4(1H)-one], for which the IC50 was determined as 14 nM on BRD4, 13.7 µM on CREBBP and 17 nM at BRD3. Moreover, the results for the GI50 with THP-1, with MV-4-11 and in the experiment with K-562 were 184 nM, 124 nM and 1490 nM, respectively. For the same compound, the “THP-1 TGI” value with THP-1 was determined as 0.354 µM. Also, in the experiment with MV-4-11, the “MV-4-11 TGI” value stood at 0.2175 µM. Further, the “K-562 TGI” value in the experiment on K-562 was greater than 10 µM.
For the compound `Cc1cc(N2C(=O)c3c(C4CN(C)C4)cn(C)c3C2c2ccc(Cl)cc2)cn2c(C)nnc12` (stereo not drawn) [Example 118, 6-(4-chlorophenyl)-5-(3,8-dimethyl-[1,2,4]triazolo[4,3-a]pyridin-6-yl)-1-methyl-3-(1-methylazetidin-3-yl)-5,6-dihydropyrrolo[3,4-b]pyrrol-4(1H)-one], the figures for the IC50 at BRD4, on CREBBP and at BRD3 were 21 nM, 32.3 µM and 22 nM, respectively. For the same compound, the GI50 with THP-1 amounted to 956 nM; with MV-4-11, 374 nM; in the experiment with K-562, 3830 nM. Moreover, the “THP-1 TGI” value with THP-1 amounted to 1.81 µM. The “MV-4-11 TGI” value in the experiment on MV-4-11 amounted to 0.5915 µM. The “K-562 TGI” value with K-562 was greater than 10 µM.
Turning to `Cc1cc(N2C(=O)c3c(C4CC4)c(C4=CCOCC4)n(C)c3C2c2ccc(Cl)cc2)cn2c(C)nnc12` (stereo not drawn) [Example 119, 6-(4-chlorophenyl)-3-cyclopropyl-2-(3,6-dihydro-2H-pyran-4-yl)-5-(3,8-dimethyl-[1,2,4]triazolo[4,3-a]pyridin-6-yl)-1-methyl-5,6-dihydropyrrolo[3,4-b]pyrrol-4(1H)-one], the IC50 at BRD4 was less than 11 nM; on CREBBP it was 1.7 µM; at BRD3, less than 11 nM. For the same compound, the GI50 in the experiment with THP-1 worked out at 1.57 nM; in the experiment on MV-4-11, 1.24 nM; in the experiment on K-562, 11.7 nM. In addition, the “THP-1 TGI” value in the experiment with THP-1 is 0.003665 µM. In addition, the “MV-4-11 TGI” value in the experiment on MV-4-11 came out at 0.00376 µM. Moreover, in the experiment on K-562, the “K-562 TGI” value came out at 3.74 µM.
Take `COc1ncccc1-c1c(C2CC2)c2c(n1C)C(c1ccc(Cl)cc1)N(c1cc(C)c3nnc(C)n3c1)C2=O` (stereo not drawn) [Example 120, 6-(4-chlorophenyl)-3-cyclopropyl-5-(3,8-dimethyl-[1,2,4]triazolo[4,3-a]pyridin-6-yl)-2-(2-methoxypyridin-3-yl)-1-methyl-5,6-dihydropyrrolo[3,4-b]pyrrol-4(1H)-one]: the values for the IC50 on BRD4, at CREBBP and on BRD3 were less than 11 nM, 1.6 µM and less than 11 nM, respectively. Moreover, the GI50 with THP-1 worked out at 3.67 nM; in the experiment on MV-4-11, 3.02 nM; in the experiment with K-562, 25.4 nM. The “THP-1 TGI” value in the experiment with THP-1 is 0.005503 µM. Also, the “MV-4-11 TGI” value in the experiment on MV-4-11 was 0.005053 µM. Besides, in the experiment with K-562, the “K-562 TGI” value was greater than 7 µM.
Turning to `Cc1cc(N2C(=O)c3cc(C4CCOCC4)n(C)c3C2c2ccc(Cl)cc2)cn2c(C)nnc12` (stereo not drawn) [Example 121, 6-(4-chlorophenyl)-5-(3,8-dimethyl-[1,2,4]triazolo[4,3-a]pyridin-6-yl)-1-methyl-2-(tetrahydro-2H-pyran-4-yl)-5,6-dihydropyrrolo[3,4-b]pyrrol-4(1H)-one], the IC50 came out at 56 nM on BRD4, 0.64 µM on CREBBP and 44 nM on BRD3. Besides, the GI50 in the experiment on THP-1 was 44.7 nM; in the experiment with MV-4-11, 54.9 nM; with K-562, 164 nM. In addition, the “THP-1 TGI” value in the experiment with THP-1 amounted to 0.0862 µM. The “MV-4-11 TGI” value with MV-4-11 was 0.0893 µM. Besides, in the experiment on K-562, the “K-562 TGI” value is greater than 10 µM.
Take `Cc1cc(N2C(=O)c3c(C4CC4)c(C)n(C)c3C2c2ccc(Cl)cc2)cn2c(C)nnc12` (stereo not drawn) [Example 122, 6-(4-chlorophenyl)-3-cyclopropyl-5-(3,8-dimethyl-[1,2,4]triazolo[4,3-a]pyridin-6-yl)-1,2-dimethyl-5,6-dihydropyrrolo[3,4-b]pyrrol-4(1H)-one]: the values for the IC50 at BRD4, at CREBBP and at BRD3 were 12 nM, 4.5 µM and 15 nM, respectively. Also, the values for the GI50 in the experiment on THP-1, with MV-4-11 and with K-562 were 6.04 nM, 9.11 nM and 41 nM, respectively. The “THP-1 TGI” value in the experiment with THP-1 worked out at 0.01193 µM. For the same compound, the “MV-4-11 TGI” value with MV-4-11 came out at 0.01297 µM. Moreover, in the experiment on K-562, the “K-562 TGI” value is greater than 7 µM.
For the compound `CCOC(=O)n1c(C2=CCOCC2)c(C)c2c1C(c1ccc(Cl)cc1)N(c1cc(C)c3nnc(C)n3c1)C2=O` (stereo not drawn) [Example 123, Ethyl 6-(4-chlorophenyl)-2-(3,6-dihydro-2H-pyran-4-yl)-5-(3,8-dimethyl-[1,2,4]triazolo[4,3-a]pyridin-6-yl)-3-methyl-4-oxo-5,6-dihydropyrrolo[3,4-b]pyrrole-1(4H)-carboxylate], the IC50 at BRD4 is less than 11 nM; at CREBBP, 2.8 µM; at BRD3, 11 nM. For the same compound, the GI50 is 6.03 nM in the experiment on THP-1, 5.14 nM with MV-4-11 and 37.5 nM in the experiment on K-562. Also, the “THP-1 TGI” value with THP-1 was 0.0135 µM. Also, the “MV-4-11 TGI” value with MV-4-11 came out at 0.009695 µM. Further, the “K-562 TGI” value in the experiment on K-562 is greater than 10 µM.
In the case of `CCOC(=O)n1c(-c2cccnc2OC)c(C)c2c1C(c1ccc(Cl)cc1)N(c1cc(C)c3nnc(C)n3c1)C2=O` (stereo not drawn) [Example 124, Ethyl 6-(4-chlorophenyl)-5-(3,8-dimethyl-[1,2,4]triazolo[4,3-a]pyridin-6-yl)-2-(2-methoxypyridin-3-yl)-3-methyl-4-oxo-5,6-dihydropyrrolo[3,4-b]pyrrole-1(4H)-carboxylate], the values for the IC50 at BRD4, on CREBBP and at BRD3 were 11 nM, 1.5 µM and 14 nM, respectively. The GI50 in the experiment on THP-1 worked out at 7.56 nM; in the experiment on MV-4-11 it was 6.58 nM; with K-562, 41.6 nM. Besides, the “THP-1 TGI” value in the experiment with THP-1 worked out at 0.0158 µM. Besides, in the experiment on MV-4-11, the “MV-4-11 TGI” value came to 0.0132 µM. Moreover, in the experiment on K-562, the “K-562 TGI” value was greater than 10 µM.
As for `CCOC(=O)n1cc(C2CC2)c2c1C(c1ccc(Cl)cc1)N(c1cc(C)c3nnc(C)n3c1)C2=O` (stereo not drawn) [Example 125, Ethyl 6-(4-chlorophenyl)-3-cyclopropyl-5-(3,8-dimethyl-[1,2,4]triazolo[4,3-a]pyridin-6-yl)-4-oxo-5,6-dihydropyrrolo[3,4-b]pyrrole-1(4H)-carboxylate], the IC50 at BRD4 is 15 nM; on CREBBP it was 13.7 µM; at BRD3, 15 nM. Further, the results for the 50% growth inhibitory concentration (GI50) in the experiment with THP-1, in the experiment on MV-4-11 and with K-562 were 15 nM, 12.1 nM and 115 nM, respectively. In addition, the “THP-1 TGI” value in the experiment on THP-1 is 0.0284 µM. For the same compound, the “MV-4-11 TGI” value in the experiment with MV-4-11 turned out to be 0.01925 µM. The “K-562 TGI” value in the experiment on K-562 was greater than 10 µM.
Take `Cc1cn(C2CCN(C)C2=O)c2c1C(=O)N(c1cc(C)c3nnc(C)n3c1)C2c1ccc(Cl)cc1` (stereo not drawn) [Example 126, 6-(4-chlorophenyl)-5-(3,8-dimethyl-[1,2,4]triazolo[4,3-a]pyridin-6-yl)-3-methyl-1-(1-methyl-2-oxopyrrolidin-3-yl)-5,6-dihydropyrrolo[3,4-b]pyrrol-4(1H)-one]: the IC50 on BRD4 amounted to 43 nM; at CREBBP it was 12.9 µM; on BRD3 it was 48 nM. For the same compound, the GI50 was found to be 113 nM with THP-1, 74.6 nM with MV-4-11 and 628 nM in the experiment on K-562. In addition, the “THP-1 TGI” value in the experiment on THP-1 was found to be 0.3155 µM. Besides, the “MV-4-11 TGI” value in the experiment with MV-4-11 was determined as 0.18 µM. Besides, the “K-562 TGI” value with K-562 was greater than 10 µM.
Turning to `CNC(=O)Cn1cc(C)c2c1C(c1ccc(Cl)cc1)N(c1cc(C)c3nnc(C)n3c1)C2=O` (stereo not drawn) [Example 127, 2-(6-(4-chlorophenyl)-5-(3,8-dimethyl-[1,2,4]triazolo[4,3-a]pyridin-6-yl)-3-methyl-4-oxo-5,6-dihydropyrrolo[3,4-b]pyrrol-1(4H)-yl)-N-methylacetamide], the IC50 turned out to be 85 nM at BRD4, 7.5 µM at CREBBP and 81 nM on BRD3. Besides, the GI50 is 824 nM in the experiment with THP-1, 412 nM with MV-4-11 and 2320 nM in the experiment with K-562. In addition, the “THP-1 TGI” value with THP-1 turned out to be 1.129 µM. In addition, in the experiment with MV-4-11, the “MV-4-11 TGI” value worked out at 0.64 µM. For the same compound, the “K-562 TGI” value with K-562 is greater than 10 µM.
